# In patent US12668594B2, “TYK2 inhibitors and uses thereof” (Sudo Biosciences Limited, priority 2020, dated 2026):
# Assays:
# TYK2 [1] = target: T1, TYK2 (Homo sapiens, UniProt P29597); test: HEK-Blue IFNα/β reporter assay (SEAP) for TYK2 pseudokinase inhibition; type: cell-based; settings: HEK-Blue IFNα/β cells, 1 ng/mL human recombinant IFNα
# Protocol: (§1) HEK-Blue™ IL-23 and IFNα/β cells with a stably-integrated cytokine receptor and STAT3 or STAT1 express STAT-inducible secreted embryonic alkaline phosphatase (SEAP) reporter gene upon cytokine stimulation. These cells are plated in DMVEM (Gibco) containing 10% heat-inactivated FBS (Gibco) and 100 U/mL PenStrep (Gibco) at 37° C. under […] conditions for 20-22 hours. The cells are then pretreated with serially diluted test compounds for 60 min prior to stimulation with either 10 ng/mL human recombinant IL-23 (Miltenyl Biotech) or 1 ng/mL human recombinant IFNα (InvivoGen) for 22-24 hours for IL-23 or 16-18 h for IFNα. SEAP induction is measured using the QUANTI Blue™ Solution (InvivoGen) according to the manufacturer's instructions. Inhibition data are calculated by comparison to no inhibitor control wells for 000 inhibition and non-stimulated control wells for 10000 inhibition. Dose response curves are generated to determine the concentration required to inhibit 5000 of cellular response (IC50) as derived by non-linear regression analysis.
# TYK2 [2] = target: T1, TYK2; test: HEK-Blue IL-23 reporter assay (SEAP) for TYK2 pseudokinase inhibition; type: cell-based; design: HEK-Blue™ IL-23 and IFNα/β cells with a stably-integrated cytokine receptor and STAT3 or STAT1; host or cells: HEK-Blue IL-23 / HEK-Blue IFNα/β cells (HEK293 background); settings: HEK-Blue IL-23 cells, 10 ng/mL human recombinant IL-23, SEAP reporter; read-out: IL23 IC50
# Protocol: as §1
# T1 sequence (P29597 whole entry): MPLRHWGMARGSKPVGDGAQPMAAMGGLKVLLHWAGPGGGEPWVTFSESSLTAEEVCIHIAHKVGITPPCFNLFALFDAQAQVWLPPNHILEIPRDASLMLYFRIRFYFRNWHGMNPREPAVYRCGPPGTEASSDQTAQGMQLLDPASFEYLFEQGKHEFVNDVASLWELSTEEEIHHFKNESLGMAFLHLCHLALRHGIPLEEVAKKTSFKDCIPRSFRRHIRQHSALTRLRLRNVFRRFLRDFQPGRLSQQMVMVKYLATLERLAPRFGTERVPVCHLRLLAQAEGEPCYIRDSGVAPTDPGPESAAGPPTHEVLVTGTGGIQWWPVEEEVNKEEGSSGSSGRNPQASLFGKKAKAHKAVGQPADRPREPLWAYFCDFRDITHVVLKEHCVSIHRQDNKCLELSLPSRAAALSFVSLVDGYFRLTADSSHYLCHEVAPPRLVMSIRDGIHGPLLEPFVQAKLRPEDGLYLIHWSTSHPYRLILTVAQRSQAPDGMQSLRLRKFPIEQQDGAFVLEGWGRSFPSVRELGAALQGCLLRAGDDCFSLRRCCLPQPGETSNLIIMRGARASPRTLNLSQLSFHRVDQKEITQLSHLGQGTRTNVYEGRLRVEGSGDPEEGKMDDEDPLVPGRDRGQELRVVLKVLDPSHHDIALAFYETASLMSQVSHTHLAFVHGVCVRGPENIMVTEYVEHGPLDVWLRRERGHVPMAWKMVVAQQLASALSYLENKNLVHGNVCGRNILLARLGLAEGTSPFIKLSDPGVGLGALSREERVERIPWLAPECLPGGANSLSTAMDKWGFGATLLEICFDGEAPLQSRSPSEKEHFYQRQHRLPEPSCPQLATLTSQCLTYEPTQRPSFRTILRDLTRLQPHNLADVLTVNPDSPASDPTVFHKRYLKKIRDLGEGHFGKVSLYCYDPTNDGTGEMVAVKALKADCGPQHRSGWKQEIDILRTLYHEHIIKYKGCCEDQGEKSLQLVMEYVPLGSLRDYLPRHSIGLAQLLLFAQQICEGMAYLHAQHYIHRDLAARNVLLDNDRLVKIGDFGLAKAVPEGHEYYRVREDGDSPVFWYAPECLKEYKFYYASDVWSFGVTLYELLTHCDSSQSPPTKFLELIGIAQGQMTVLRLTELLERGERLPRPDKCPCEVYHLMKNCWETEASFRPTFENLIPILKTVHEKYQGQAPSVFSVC
SMILES,IC50 (TYK2 [1]) [µM],IC50 (TYK2 [2]) [µM]
"Cn1ccc(Nc2cc3c(cn2)c(=O)[nH]n3-c2ccccc2)n1 [Compound I-4, 6-((1-methyl-1H-pyrazol-3-yl)amino)-1-phenyl-1,2-dihydro-3H-pyrazolo[4,3-c]pyridin-3-one]",10 to 30,< 10
"Cn1cc(Nc2cc3c(cn2)c(=O)[nH]n3-c2ccccc2)cn1 [Compound I-5, 6-((1-methyl-1H-pyrazol-4-yl)amino)-1-phenyl-1,2-dihydro-3H-pyrazolo[4,3-c]pyridin-3-one]",30 to 90,10 to 30
"Cc1cc(Nc2cc3c(cn2)c(=O)[nH]n3-c2ccccc2)ncc1F [Compound I-6, 6-((5-fluoro-4-methylpyridin-2-yl)amino)-1-phenyl-1,2-dihydro-3H-pyrazolo[4,3-c]pyridin-3-one]",< 10,< 10
"COCCC(=O)Nc1cc2c(cn1)c(=O)[nH]n2-c1ccccc1 [Compound I-7, 3-methoxy-N-(3-oxo-1-phenyl-2,3-dihydro-1H-pyrazolo[4,3-c]pyridin-6-yl)propanamide]",30 to 90,10 to 30
"Cc1nc(Nc2cc3c(cn2)c(=O)[nH]n3-c2ccccc2)cc(OC(C)C)n1 [Compound I-8, 6-((6-isopropoxy-2-methylpyrimidin-4-yl)amino)-1-phenyl-1,2-dihydro-3H-pyrazolo[4,3-c]pyridin-3-one]",10 to 30,< 10
"O=C(Nc1cc2c(cn1)c(=O)[nH]n2-c1ccccc1)c1ccccn1 [Compound I-9, N-(3-oxo-1-phenyl-2,3-dihydro-1H-pyrazolo[4,3-c]pyridin-6-yl)picolinamide]",> 90,> 90
"O=C(Nc1cc2c(cn1)c(=O)[nH]n2-c1ccccc1)c1cccnc1 [Compound I-10, N-(3-oxo-1-phenyl-2,3-dihydro-1H-pyrazolo[4,3-c]pyridin-6-yl)nicotinamide]",,> 90
"CC(C)N1CCN(c2cc3c(cn2)c(=O)[nH]n3-c2ccccc2)C1=O [Compound I-13, 6-(3-isopropyl-2-oxoimidazolidin-1-yl)-1-phenyl-1,2-dihydro-3H-pyrazolo[4,3-c]pyridin-3-one]",,30 to 90
"COc1ccccc1-n1[nH]c(=O)c2cnc(NC(=O)C3CC3)cc21 [Compound I-15, N-(1-(2-methoxyphenyl)-3-oxo-2,3-dihydro-1H-pyrazolo[4,3-c]pyridin-6-yl)cyclopropanecarboxamide]",30 to 90,10 to 30
"COc1ccccc1-n1[nH]c(=O)c2cnc(Nc3ccc(F)cn3)cc21 [Compound I-16, 6-((5-fluoropyridin-2-yl)amino)-1-(2-methoxyphenyl)-1,2-dihydro-3H-pyrazolo[4,3-c]pyridin-3-one]",> 90,30 to 90
"Cc1cc(Nc2cc3c(cn2)c(=O)[nH]n3-c2cccc(C#N)c2)nc(C)n1 [Compound I-18, 3-(6-((2,6-dimethylpyrimidin-4-yl)amino)-3-oxo-2,3-dihydro-1H-pyrazolo[4,3-c]pyridin-1-yl)benzonitrile]",10 to 30,< 10
"COc1ccc(-n2[nH]c(=O)c3cnc(NC(=O)C4CC4)cc32)cc1 [Compound I-19, N-(1-(4-methoxyphenyl)-3-oxo-2,3-dihydro-1H-pyrazolo[4,3-c]pyridin-6-yl)cyclopropanecarboxamide]",10 to 30,< 10
"Cc1cc(Nc2cc3c(cn2)c(=O)[nH]n3-c2ccccc2S(C)(=O)=O)nc(C)n1 [Compound I-20, 6-((2,6-dimethylpyrimidin-4-yl)amino)-1-(2-(methylsulfonyl)phenyl)-1,2-dihydro-3H-pyrazolo[4,3-c]pyridin-3-one]",30 to 90,10 to 30
"Cc1cc(Nc2cc3c(cn2)c(=O)[nH]n3-c2cccc(C(N)=O)c2)nc(C)n1 [Compound I-21, 3-(6-((2,6-dimethylpyrimidin-4-yl)amino)-3-oxo-2,3-dihydro-1H-pyrazolo[4,3-c]pyridin-1-yl)benzamide]",,> 90
"COc1c(-c2ncn(C)n2)cccc1-n1[nH]c(=O)c2cnc(Nc3cc(C)nc(C)n3)cc21 [Compound I-22, 6-[(2,6-dimethylpyrimidin-4-yl)amino]-1-[2-methoxy-3-(1-methyl-1H-1,2,4-triazol-3-yl)phenyl]-1H,2H,3H-pyrazolo[4,3-c]pyridin-3-one]",10 to 30,< 10
"Cc1cc(Nc2cc3c(cn2)c(=O)[nH]n3-c2cccc(-c3ncn(C)n3)c2)nc(C)n1 [Compound I-23, 6-((2,6-dimethylpyrimidin-4-yl)amino)-1-(3-(1-methyl-1H-1,2,4-triazol-3-yl)phenyl)-1,2-dihydro-3H-pyrazolo[4,3-c]pyridin-3-one]",10 to 30,< 10
"COc1cccc(-n2[nH]c(=O)c3cnc(Nc4cc(C)nc(C)n4)c(F)c32)c1 [Compound I-24, 6-((2,6-dimethylpyrimidin-4-yl)amino)-7-fluoro-1-(3-methoxyphenyl)-1,2-dihydro-3H-pyrazolo[4,3-c]pyridin-3-one]",> 90,10 to 30
"CS(=O)(=O)c1ccccc1-n1[nH]c(=O)c2cnc(Nc3ccc(F)cn3)cc21 [Compound I-26, 6-((5-fluoropyridin-2-yl)amino)-1-(2-(methylsulfonyl)phenyl)-1,2-dihydro-3H-pyrazolo[4,3-c]pyridin-3-one]",< 10,< 10
"Cc1cc(Nc2cc3c(cn2)c(=O)[nH]n3-c2cccc(S(C)(=O)=O)c2)nc(C)n1 [Compound I-27, 6-((2,6-dimethylpyrimidin-4-yl)amino)-1-(3-(methylsulfonyl)phenyl)-1,2-dihydro-3H-pyrazolo[4,3-c]pyridin-3-one]",,> 90
"Cc1cc(Nc2cc3c(cn2)c(=O)[nH]n3-c2cccc(OC(F)(F)F)c2)nc(C)n1 [Compound I-28, 6-((2,6-dimethylpyrimidin-4-yl)amino)-1-(3-(trifluoromethoxy)phenyl)-1,2-dihydro-3H-pyrazolo[4,3-c]pyridin-3-one]",< 10,< 10
"Cc1cc(Nc2cc3c(cn2)c(=O)[nH]n3-c2cccc(C(F)(F)F)c2)ncc1F [Compound I-29, 6-((5-fluoro-4-methylpyridin-2-yl)amino)-1-(3-(trifluoromethyl)phenyl)-1,2-dihydro-3H-pyrazolo[4,3-c]pyridin-3-one]",< 10,< 10
"COc1cccc(-n2[nH]c(=O)c3cnc(Nc4cc(C(F)(F)F)ccn4)cc32)c1 [Compound I-43, 1-(3-methoxyphenyl)-6-((4-(trifluoromethyl)pyridin-2-yl)amino)-1,2-dihydro-3H-pyrazolo[4,3-c]pyridin-3-one]",,> 90
"O=c1[nH]n(-c2cc(Cl)cc(Cl)c2)c2cc(Nc3ccc(F)cn3)ncc12 [Compound I-97, 1-(3,5-dichlorophenyl)-6-((5-fluoropyridin-2-yl)amino)-1,2-dihydro-3H-pyrazolo[4,3-c]pyridin-3-one]",,> 90
"Cc1cc(Nc2cc3c(cn2)c(=O)[nH]n3-c2ccc(C(N)=O)cc2)nc(C)n1 [Compound I-123, 4-(6-((2,6-dimethylpyrimidin-4-yl)amino)-3-oxo-2,3-dihydro-1H-pyrazolo[4,3-c]pyridin-1-yl)benzamide]",,> 90
"COc1cccc(-n2[nH]c(=O)c3cnc(NC(=O)C4(O)CC4)cc32)c1 [Compound I-124, 1-hydroxy-N-(1-(3-methoxyphenyl)-3-oxo-2,3-dihydro-1H-pyrazolo[4,3-c]pyridin-6-yl)cyclopropane-1-carboxamide]",,< 10
